Reference: patent US8940771B2, “Organic compounds” (Novartis AG, priority 2007, dated 2015)
pIC50: −log10 of the molar value.

Experiments:
[1] = molecular target: PI3Kα (p85iSH2(461-568)-p110α(21-1068)-His, BV1075) (Homo sapiens (Human), UniProt P42336); assay: PI3K KinaseGlo assay, PI3Kalpha; assay type: biochemical; settings: for pIC50: KinaseGlo, 1 μM ATP; for Selectivity PI3Kalpha vs. PI3Kdelta: ratio of PI3Kdelta IC50 to PI3Kalpha IC50
[2] = molecular target: PI3Kδ (p85iSH2(461-568)-p110δ(2-1044)-His, BV1060) (Homo sapiens (Human), UniProt O00329); assay: PI3K KinaseGlo assay, PI3Kdelta; assay type: biochemical; settings: 1 μM ATP, alpha vs. delta selectivity table
[3] = alpha vs. delta selectivity table

PI3Kα (p85iSH2(461-568)-p110α(21-1068)-His, BV1075), sequence (P42336 other isoform, or with tags, fused parts or gaps): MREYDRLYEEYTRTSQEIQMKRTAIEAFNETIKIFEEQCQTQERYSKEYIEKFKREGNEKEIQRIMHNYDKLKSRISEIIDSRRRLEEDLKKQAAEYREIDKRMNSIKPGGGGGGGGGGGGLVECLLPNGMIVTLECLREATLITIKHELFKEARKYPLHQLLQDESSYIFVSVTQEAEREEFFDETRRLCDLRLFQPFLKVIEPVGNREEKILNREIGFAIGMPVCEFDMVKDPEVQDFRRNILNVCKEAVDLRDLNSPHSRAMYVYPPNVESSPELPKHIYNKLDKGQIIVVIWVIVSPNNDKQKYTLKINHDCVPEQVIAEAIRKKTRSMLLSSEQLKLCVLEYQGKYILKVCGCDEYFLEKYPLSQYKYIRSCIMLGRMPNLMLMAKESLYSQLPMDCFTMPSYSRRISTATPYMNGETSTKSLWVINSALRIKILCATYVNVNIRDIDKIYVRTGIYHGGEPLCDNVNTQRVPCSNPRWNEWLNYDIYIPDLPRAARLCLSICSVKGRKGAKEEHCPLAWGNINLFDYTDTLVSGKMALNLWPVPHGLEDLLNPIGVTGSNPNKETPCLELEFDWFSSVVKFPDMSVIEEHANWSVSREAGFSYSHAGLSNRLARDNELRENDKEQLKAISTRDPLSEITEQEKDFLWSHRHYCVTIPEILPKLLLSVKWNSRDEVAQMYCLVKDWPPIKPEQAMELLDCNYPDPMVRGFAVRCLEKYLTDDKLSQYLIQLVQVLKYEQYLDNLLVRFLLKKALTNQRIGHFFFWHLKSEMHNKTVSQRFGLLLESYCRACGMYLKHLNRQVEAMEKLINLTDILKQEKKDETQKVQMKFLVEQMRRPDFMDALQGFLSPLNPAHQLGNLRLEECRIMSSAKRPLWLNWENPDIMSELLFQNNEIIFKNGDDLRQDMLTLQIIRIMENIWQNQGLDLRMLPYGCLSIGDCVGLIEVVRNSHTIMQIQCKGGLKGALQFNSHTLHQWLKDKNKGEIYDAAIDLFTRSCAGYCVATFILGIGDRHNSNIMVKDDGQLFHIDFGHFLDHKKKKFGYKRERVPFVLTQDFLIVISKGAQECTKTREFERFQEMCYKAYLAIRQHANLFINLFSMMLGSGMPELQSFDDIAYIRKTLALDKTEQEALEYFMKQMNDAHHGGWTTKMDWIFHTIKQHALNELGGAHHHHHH
PI3Kδ (p85iSH2(461-568)-p110δ(2-1044)-His, BV1060), sequence (O00329 other isoform, or with tags, fused parts or gaps): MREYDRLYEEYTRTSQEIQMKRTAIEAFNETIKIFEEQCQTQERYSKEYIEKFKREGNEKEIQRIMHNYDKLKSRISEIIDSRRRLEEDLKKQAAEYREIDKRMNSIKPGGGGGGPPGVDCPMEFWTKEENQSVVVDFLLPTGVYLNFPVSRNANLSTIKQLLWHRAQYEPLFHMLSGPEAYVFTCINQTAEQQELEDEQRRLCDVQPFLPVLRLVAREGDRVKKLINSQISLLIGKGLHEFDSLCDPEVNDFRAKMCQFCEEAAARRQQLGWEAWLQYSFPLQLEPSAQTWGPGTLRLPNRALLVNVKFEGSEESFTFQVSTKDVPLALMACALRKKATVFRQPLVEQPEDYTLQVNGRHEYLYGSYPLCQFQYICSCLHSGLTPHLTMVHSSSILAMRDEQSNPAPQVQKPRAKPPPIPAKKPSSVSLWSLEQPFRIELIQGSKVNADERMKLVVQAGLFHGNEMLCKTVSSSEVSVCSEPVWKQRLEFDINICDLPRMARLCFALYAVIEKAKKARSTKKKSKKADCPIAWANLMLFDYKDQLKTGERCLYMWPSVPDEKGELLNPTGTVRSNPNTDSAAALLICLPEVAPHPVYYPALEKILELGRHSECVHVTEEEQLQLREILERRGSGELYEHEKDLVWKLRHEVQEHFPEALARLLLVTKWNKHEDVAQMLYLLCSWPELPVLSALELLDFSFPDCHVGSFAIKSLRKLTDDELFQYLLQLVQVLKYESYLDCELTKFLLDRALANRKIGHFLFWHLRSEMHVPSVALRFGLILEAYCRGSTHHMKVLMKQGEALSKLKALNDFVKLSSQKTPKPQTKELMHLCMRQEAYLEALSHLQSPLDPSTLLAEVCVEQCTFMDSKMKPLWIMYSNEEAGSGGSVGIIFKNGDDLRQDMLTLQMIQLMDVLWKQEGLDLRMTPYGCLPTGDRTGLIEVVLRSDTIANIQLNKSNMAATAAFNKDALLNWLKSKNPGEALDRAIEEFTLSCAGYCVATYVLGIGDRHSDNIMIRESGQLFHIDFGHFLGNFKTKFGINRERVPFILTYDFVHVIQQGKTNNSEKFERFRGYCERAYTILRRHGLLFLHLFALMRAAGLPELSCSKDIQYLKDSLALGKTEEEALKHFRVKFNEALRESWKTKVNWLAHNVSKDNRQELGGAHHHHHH

SMILES	pIC50 ([1]; 10 nM enzyme, 30 mins)	also measured
Cc1nc(NC(=O)N2C[C@H]3C[C@H]3[C@H]2C(N)=O)sc1-c1ccnc(C(C)(C)C)n1 [Example 11, (1R,2S,5S)-3-aza-bicyclo[3.1.0]hexane-2,3-dicarboxylic acid 2-amide 3-{[5-(2-tert-butyl-pyrimidin-4-yl)-4-methyl-thiazol-2-yl]-amide}]	7.32	–
Cc1nc(NC(=O)N2CC[C@H](O)[C@H]2C(N)=O)sc1-c1ccnc(C(C)(C)C)n1.O=C(O)C(F)(F)F [Example 9, (2S,3S)-3-hydroxy-pyrrolidine-1,2-dicarboxylic acid 2-amide 1-{[5-(2-tert-butyl-pyrimidin-4-yl)-4-methyl-thiazol-2-yl]-amide}triflouroacetate]	–	pIC50 [1, 3]: 7.92; Selectivity PI3Kalpha vs. PI3Kdelta [1]: 38-fold
Cc1nc(NC(=O)N2C[C@@H](O)C[C@H]2C(N)=O)sc1-c1ccnc(C(C)(C)C)c1 [Example 7, (2S,4S)-4-hydroxy-pyrrolidine-1,2-dicarboxylic acid 2-amide 1-{[5-(2-tert-butyl-pyridin-4-yl)-4-methyl-thiazol-2-yl]-amide}]	7.82	–
Cc1nc(NC(=O)N2C[C@H](O)C[C@@]2(C)C(N)=O)sc1-c1ccnc(C(C)(C)C)n1 [Example 65, (2S,4R)-4-Hydroxy-2-methyl-pyrrolidine-1,2-dicarboxylic acid 2-amide 1-{[5-(2-tert-butyl-pyrimidin-4-yl)-4-methyl-thiazol-2-yl]-amide}]	7.51	–
Cc1nc(NC(=O)N2CCC[C@@]2(C)C(N)=O)sc1-c1ccnc(C2(C)CC2)c1 [Example 40, S)-2-Methyl-pyrrolidine-1,2-dicarboxylic acid 2-amide 1-({4-methyl-5-[2-(1-methyl-cyclopropyl)-pyridin-4-yl]-thiazol-2-yl}-amide]	7.43	–
Cc1nc(NC(=O)N2CCC[C@]2(C(N)=O)C(F)F)sc1-c1ccnc(C(C)(C)C)n1 [Example 114, (S)-2-Difluoromethyl-pyrrolidine-1,2-dicarboxylic acid 2-amide 1-{[5-(2-tert-butyl-pyrimidin-4-yl)-4-methyl-thiazol-2-yl]-amide}]	6.89	–
CCN(CC)c1nccc(-c2sc(NC(=O)N3CC[C@@H]4C[C@@]43C(N)=O)nc2C)n1 [Example 88, (1S,5R)-2-Aza-bicyclo[3.1.0]hexane-1,2-dicarboxylic acid 1-amide 2-{[5-(2-diethylamino-pyrimidin-4-yl)-4-methyl-thiazol-2-yl]-amide}]	7.12	–
Cc1nc(NC(=O)N2C[C@H](N(C)C)C[C@H]2C(N)=O)sc1-c1ccnc(C(C)(C)C)n1 [Example 70, (2S,4R)-4-Dimethylamino-pyrrolidine-1,2-dicarboxylic acid 2-amide 1-{[5-(2-tert-butyl-pyrimidin-4-yl)-4-methyl-thiazol-2-yl]-amide}]	–	pIC50 [1, 3]: 7.85; Selectivity PI3Kalpha vs. PI3Kdelta [1]: 246-fold; pIC50 [2]: 5.46
Cc1nc(NC(=O)N2CCC[C@@]2(C)C(N)=O)sc1-c1ccnc(C2(C(F)(F)F)CC2)c1 [Example 46, S)-2-Methyl-pyrrolidine-1,2-dicarboxylic acid 2-amide 1-({4-methyl-5-[2-(1-trifluoromethyl-cyclopropyl)-pyridin-4-yl]-thiazol-2-yl}-amide]	8.05	–
CC1(c2cc(-c3cnc(NC(=O)N4CCC[C@@]4(C)C(N)=O)s3)ccn2)CC1 [Example 117, S)-2-Methyl-pyrrolidine-1,2-dicarboxylic acid 2-amide 1-({5-[2-(1-methyl-cyclopropyl)-pyridin-4-yl]-thiazol-2-yl}amide]	7.59	–
CCCc1nccn1-c1cc(-c2sc(NC(=O)N3CC(O)CC3C(N)=O)nc2C)ccc1S(C)(=O)=O [Example 1, (2S,4R)-4-hydroxy-pyrrolidine-1,2-dicarboxylic acid 2-amide 1-({5-[4-methanesulfonyl-3-(2-propyl-imidazol-1-yl)-phenyl]-4-methyl-thiazol-2-yl}-amide)triflouroacetate]	6.77	–
CSc1nccc(-c2sc(NC(=O)N3CCC[C@@]3(C)C(N)=O)nc2C)n1 [Example 74, (S)-2-Methyl-pyrrolidine-1,2-dicarboxylic acid 2-amide 1-{[4-methyl-5-(2-methylsulphanyl-pyrimidin-4-yl)-thiazol-2-yl]-amide}]	6.89	–
COC[C@@]1(C(N)=O)CCCN1C(=O)Nc1nc(C)c(-c2ccnc(C(C)(C)C)n2)s1 [Example 112, (R)-2-Methoxymethyl-pyrrolidine-1,2-dicarboxylic acid 2-amide 1-{[5-(2-tert-butyl-pyrimidin-4-yl)-4-methyl-thiazol-2-yl]-amide}]	7.31	–
CC1(c2cc(-c3sc(NC(=O)N4CCC[C@@]4(C)C(N)=O)nc3Cl)ccn2)CC1 [Example 129, S)-2-Methyl-pyrrolidine-1,2-dicarboxylic acid 2-amide 1-({4-chloro-5-[2-(1-methyl-cyclopropyl)-pyridin-4-yl]-thiazol-2-yl}-amide]	7.62	–
Cc1nc(NC(=O)N2CCC[C@@]2(CN(C)C)C(N)=O)sc1-c1ccnc(C(C)(C)C)n1 [Example 107, (R)-2-Dimethylaminomethyl-pyrrolidine-1,2-dicarboxylic acid 2-amide 1-{[5-(2-tert-butyl-pyrimidin-4-yl)-4-methyl-thiazol-2-yl]-amide}]	7.36	–
Cc1nc(NC(=O)N2CCC[C@@]2(C)C(N)=O)sc1-c1ccnc(-n2ccnc2C)n1 [Example 102, S)-2-Methyl-pyrrolidine-1,2-dicarboxylic acid 2-amide 1-({4-methyl-5-[2-(2-methyl-imidazol-1-yl)-pyrimidin-4-yl]-thiazol-2-yl}-amide]	6.68	–
Cc1nc(NC(=O)N2CCC[C@@]2(C)C(N)=O)sc1-c1ccnc(C2(C#N)CC2)c1 [Example 49, S)-2-Methyl-pyrrolidine-1,2-dicarboxylic acid 2-amide 1-({5-[2-(1-cyano-cyclopropyl)-pyridin-4-yl]-4-methyl-thiazol-2-yl}-amide]	7.77	–
Cc1nc(NC(=O)N2CC(F)(F)C[C@H]2C(N)=O)sc1-c1ccnc(C2(C)CC2)c1 [Example 59, S)-4,4-Difluoro-pyrrolidine-1,2-dicarboxylic acid 2-amide 1-({4-methyl-5-[2-(1-methyl-cyclopropyl)-pyridin-4-yl]-thiazol-2-yl}-amide]	7.15	–
Cc1nc(NC(=O)N2CCC[C@@]2(C)C(N)=O)sc1-c1ccnc(N(C)CCN(C)C)n1 [Example 80, (S)-2-Methyl-pyrrolidine-1,2-dicarboxylic acid 2-amide 1-[(5-{2-[(2-dimethylamino-ethyl)-methyl-amino]-pyrimidin-4-yl}-4-methyl-thiazol-2-yl)-amide]]	6.60	–
Cc1nc(NC(=O)N2C[C@H](O)C[C@H]2C(N)=O)sc1-c1ccnc(C(C)(C)C)n1 [Example 3, (2S,4R)-4-hydroxy-pyrrolidine-1,2-dicarboxylic acid 2-amide 1-{[5-(2-tert-butyl-pyrimidin-4-yl)-4-methyl-thiazol-2-yl]-amide}triflouroacetate]	7.89	–
CC(C)(c1cc(-c2cnc(NC(=O)N3CCC[C@@]3(C)C(N)=O)s2)ccn1)C(F)(F)F [Example 119, S)-2-Methyl-pyrrolidine-1,2-dicarboxylic acid 2-amide 1-({5-[2-(2,2,2-trifluoro-1,1-dimethyl-ethyl)-pyridin-4-yl}-thiazol-2-yl]-amide]	8.10	–
CCN(CCOC)c1nccc(-c2sc(NC(=O)N3CCC[C@@]3(C)C(N)=O)nc2C)n1 [Example 101, (S)-2-Methyl-pyrrolidine-1,2-dicarboxylic acid 2-amide 1-[(5-{2-[ethyl-(2-methoxy-ethyl)-amino]-pyrimidin-4-yl}-4-methyl-thiazol-2-yl)-amide]]	7.00	–
COc1ccc(C(C)(C)c2cc(-c3cnc(NC(=O)N4CCC[C@@]4(C)C(N)=O)s3)ccn2)cc1 [Example 124, (S)-2-Methyl-pyrrolidine-1,2-dicarboxylic acid 2-amide 1-[(5-{2-[1-(4-methoxy-phenyl)-1-methyl-ethyl]-pyridin-4-yl}-thiazol-2-yl)-amide]]	7.55	–
Cc1nc(NC(=O)N2CCC[C@@]2(C)C(N)=O)sc1-c1ccnc(CC2CC2)n1 [Example 110, (S)-2-Methyl-pyrrolidine-1,2-dicarboxylic acid 2-amide 1-{[5-(2-cyclopropylmethyl-pyrimidin-4-yl)-4-methyl-thiazol-2-yl]-amide}]	7.15	–
Cc1nc(NC(=O)N2CCC[C@@]2(C)C(N)=O)sc1-c1ccnc(C(C)(C)C(F)(F)F)c1 [Example 47, S)-2-Methyl-pyrrolidine-1,2-dicarboxylic acid 2-amide 1-({4-methyl-5-[2-(2,2,2-trifluoro-1,1-dimethyl-ethyl)-pyridin-4-yl]-thiazol-2-yl}-amide]	7.40	–
COc1ccc(C2(c3cc(-c4sc(NC(=O)N5CCC[C@@]5(C)C(N)=O)nc4C)ccn3)CC2)cc1 [Example 54, (S)-2-Methyl-pyrrolidine-1,2-dicarboxylic acid 2-amide 1-[(5-{2-[1-(4-methoxy-phenyl)-cyclopropyl]-pyridin-4-yl}-4-methyl-thiazol-2-yl)-amide]]	6.72	–
CCN(Cc1ccccc1)c1nccc(-c2sc(NC(=O)N3CCC[C@@]3(C)C(N)=O)nc2C)n1 [Example 98]	6.85	–
CCN(CC)c1cc(-c2cnc(NC(=O)N3CCC[C@@]3(C)C(N)=O)s2)ccn1 [Example 122, (S)-2-Methyl-pyrrolidine-1,2-dicarboxylic acid 2-amide 1-{[5-(2-diethylamino-pyridin-4-yl)-thiazol-2-yl]-amide}]	7.30	–
[2H]C([2H])([2H])C(c1nccc(-c2sc(NC(=O)N3CCC[C@@]3(C)C(N)=O)nc2C)n1)(C([2H])([2H])[2H])C([2H])([2H])[2H] [Example 111]	7.28	–
Cc1nc(NC(=O)N2CCC[C@@]2(C)C(N)=O)sc1-c1ccnc(C2(C(F)(F)F)CCC2)c1 [Example 48, S)-2-Methyl-pyrrolidine-1,2-dicarboxylic acid 2-amide 1-({4-methyl-5-[2-(1-trifluoromethyl-cyclobutyl)-pyridin-4-yl]-thiazol-2-yl}-amide]	8.30	–
